Assay type in all cases: biochemical
Assay [1] relates to Aβ42. The assay is described as follows: DLS of Aβ42 aggregates. The following applies: untreated Aβ42 50 μM.
Method: Dynamic light scattering (DLS) measurements
DLS1,2 measurements were performed with the different Aβ42peptide samples (oligomers and mature fibrils) on a Malvern nano zetasizer (Malvern, UK) using a laser source with λ=633 nm and a detector at a scattering angle of θ = 173 degrees.
for the ThT assay, in the absence of ThT dye, for 1h, 5h, 10h and 20h min to generate oligomers and mature fibrils, respectively and the hydrodynamic diameter of them was immediately examined by DLS.
Prior to the analysis, samples were filtered through 0.45 µm PVDF membrane. The samples were placed in a disposable cuvette and held at the corresponding temperature during the analysis. For each sample, the analyses were recorded three times with 11 sub-runs using the multimodal mode. The Z-average diameter was calculated from the correlation function using Malvern technology software. g.
The nature of assay [2]: Carboxyfluorescein dye leakage from LUVs, Aβ42. To be noted: Aβ42 50 μM.
Method: Carboxyfluorescein dye loaded Large Unilamellar Vesicles (LUVs) preparation LUVs were prepared using a mixture of DMPC, Cholesterol, and GM1 (68:30:2, molar). Lipids were dissolved in chloroform and methanol (2:1, 2 mM) in a glass vessel, and solvents were evaporated using nitrogen gas to make lipid films.3 The lipid films were hydrated with 500 µL of carboxyfluorescein (CF) solution (200 µM) in 50mM HEPES buffer of pH 7.4. Then, the solution was vortexed vigorously for 30 min for emulsification. Then the glass vial was dipped into the liquid nitrogen for instant cooling, and after 5 min the frozen solution was dipped into a water bath at 50-60 °C for freeze-thawing.4This step was repeated five times. The excess dye was removed by ultracentrifugation at 20000 rpm, the supernatant […]
Carboxyfluorescein dye loaded Large Unilamellar Vesicles (LUVs) Leakage Study For leakage study, peptide and lipids were taken in 1:20 molar ratios, and the dye release was monitored by fluorescence emission. Emission was measured at 516 nm, and excitation at 485 nm, 3 nm of bandwidth on a Fluoromax-4, Horiba instrument. The complete dye release from the vesicle was obtained using Triton X-100, and the final fluorescence was measured. The % leakage was calculated as, % 𝐿𝑒𝑎𝑘𝑎𝑔𝑒 = (𝑂𝑏𝑠𝑒𝑟𝑣𝑒𝑑 𝑓𝑙𝑢𝑜𝑟𝑒𝑠𝑐𝑒𝑛𝑐𝑒 –𝑖𝑛𝑖𝑡𝑖𝑎𝑙 𝑓𝑙𝑢𝑜𝑟𝑒𝑠𝑐𝑒𝑛𝑐𝑒) × 100 % … ..(4) (𝑇𝑜𝑡𝑎𝑙 𝑓𝑙𝑢𝑜𝑟𝑒𝑠𝑐𝑒𝑛𝑐𝑒 ‒ 𝑖𝑛𝑖𝑡𝑖𝑎𝑙 𝑓𝑙𝑢𝑜𝑟𝑒𝑠𝑐𝑒𝑛𝑐𝑒) […]
The subject of assay [3] is Aβ42. The assay is described as follows: TEM of early events of Aβ42 aggregation. The following applies: absence of SP1; 1, 5, 10, 20 h.
Method: Transmission Electron Microscopy (TEM)
10μL aliquot from the stock peptide solution after incubation of 10 days (7 days for inhibition study) was added over the carbon-coated copper grid. Then 2% uranyl acetate solution (10μL) was added onto it and allowed to float for 1 min. The excess solution was removed using a blotting paper. The sample was dried at room temperature and kept in desiccators before taking TEM analysis on JEOL (Model: JEM 2100)

For Aβ42: Aβ42 peptide, the figures for the hydrodynamic diameter with Aβ42 [1] (1 h), in the assay on Aβ42 [1] (10 h) and in the assay on Aβ42 [1] (20 h) were around 8 nm, around 825 nm and around 940 nm, respectively. Also, the “dye leakage from LUVs” value in assay [2] (absence of SP1, 5 h aged) is around 55%; in assay [2] (absence of SP1, 10 h aged), around 23%. In addition, in the assay on Aβ42 [3], the “morphology of Aβ42 aggregates (TEM)” value is on record as “exhibited smaller aggregates at 1 h or 5 h”.
